Here are results for two molecules from publication PMC8360000 (Clinical Pharmacology and Therapeutics, 2021).

Series [1] has as its system P‐gp. The experiment in a line: IVIVE of intrinsic CL and Kp,uu,brain using REF and BMEC protein content. Also on record: species or system human. Particulars: for Kp,uu,brain,pred(method 2): 5C model.
Series [2] concerns P‐gp. Particulars: humans, cyclosporine as inhibitor; cited from earlier work.
The test system of series [3] is P‐gp. The experiment in a line: IVIVE of Kp,uu,brain from in vitro ER using REF. On the set-up: species or system human. Particulars: for Kp,uu,brain,pred(method 1) Mean ± SD / Kp,uu,brain,pred(method 1) Individual: predicted from in vitro ER and REF; for Kp,uu,brain,pred(method 1) Mean ± SD: four experiments; for Kp,uu,brain,pred(method 1) Individual: individual experiments 1-4.

Another series deals with P-gp. The experiment in a line: IVIVE of Kp,uu,brain from in vitro ER using REF. On the set-up: species or system human. To be noted: human, brain (unbound, Kp,uu).

Where “and” joins values, the source holds several entries; their conditions need not be identical. Equal values may be shown once.

In the case of `CCN(CC)CCNC(=O)c1cc(Cl)c(N)cc1OC` [Metoclopramide, metoclopramide], the “Kp,uu,brain,pred(method 2)” value in the series on P‐gp [1] (mean ± standard deviation) turned out to be 0.61 ± 0.10. The “K1 (cerebral uptake CL), impact of P‐gp inhibition” value with P‐gp [2] is recorded as “not impacted”. In the series with P‐gp [3], the “Kp,uu,brain,pred(method 1) Mean ± SD” value is on record as 0.74 ± 0.08; the “Kp,uu,brain,pred(method 1) Individual” value was 0.74 and 0.76 and 0.63 and 0.81. Moreover, the Kp uu in the series with P-gp is 1.3.

With `CNC(=O)C(CCN1CCC(O)(c2ccc(Cl)cc2)CC1)(c1ccccc1)c1ccccc1` [N‐desmethyl loperamide], the “Kp,uu,brain,pred(method 2)” value in the series with P‐gp [1] (mean ± standard deviation) is on record as 0.020 ± 0.014. For the same molecule, in the series on P‐gp [1] (mean ± standard deviation, scaled with BMEC protein content), the “IVIV Extrapolated CLi” value is 287 ± 88 mL/min. In the series on P‐gp [1] (method 2), the “P/O (predicted/observed value)” value is 0.44. Further, the “P/O (predicted/observed Kp,uu,brain ratio)” value in the series on P‐gp [3] (method 1) is reported as 0.92. Moreover, in the series with P‐gp [3], the “Kp,uu,brain,pred(method 1) Mean ± SD” value is 0.043 ± 0.018; the “Kp,uu,brain,pred(method 1) Individual” value was 0.058 and 0.035 and 0.056 and 0.021.
